Series [1] is described as follows: Human microsomal stability assay. It counts as in vitro ADME. The settings on record: human liver microsomes, 1 μM test compound, 0.5 mg/mL protein, 37° C., pH 7.4. On the procedure: Human Microsomal Stability Assay
Human liver microsomes (Cat.NO.: 452117, Corning, USA) were preincubated with test compound for 10 minutes at 37° C. in 100 mM potassium phosphate buffer, pH 7.4. The reactions were initiated by adding NADPH regenerating system. The final incubation mixtures contained 1 μM test compound, 0.5 mg/mL liver microsomal protein, 1 mM MgCl2, 1 mM NADP, 1 unit/mL isocitric dehydrogenase and 6 mM isocitric acid in 100 mM potassium phosphate buffer, pH 7.4. After incubation times of 0, 3, 6, 9, 15 and 30 minutes at 37° C., 300 μL of cold ACN (including internal standard) was added to 100 μL incubation mixture to terminate the reaction. Following precipitation and centrifugation, 100 uL supernatant will be taken out and added 300 uL water. The amount of compound remaining in the samples was determined by LC-MS/MS. Controls of no NADPH regenerating system at zero and 30 minutes were also prepared and analyzed. The results were categorized as: low (7.0 mL/min/kg), medium (7.0-16.2 mL/min/kg) and high (16.2-23.2 mL/min/kg).
Background: Liver microsomes are a subcellular fraction often used to study metabolism.

The target in a further series is T1, human TLR7 (Homo sapiens, UniProt Q9NYK1).
T1 construct: host or cells: HEK293 (HEK-Blue hTLR7)
T1 sequence (Q9NYK1 27-1049): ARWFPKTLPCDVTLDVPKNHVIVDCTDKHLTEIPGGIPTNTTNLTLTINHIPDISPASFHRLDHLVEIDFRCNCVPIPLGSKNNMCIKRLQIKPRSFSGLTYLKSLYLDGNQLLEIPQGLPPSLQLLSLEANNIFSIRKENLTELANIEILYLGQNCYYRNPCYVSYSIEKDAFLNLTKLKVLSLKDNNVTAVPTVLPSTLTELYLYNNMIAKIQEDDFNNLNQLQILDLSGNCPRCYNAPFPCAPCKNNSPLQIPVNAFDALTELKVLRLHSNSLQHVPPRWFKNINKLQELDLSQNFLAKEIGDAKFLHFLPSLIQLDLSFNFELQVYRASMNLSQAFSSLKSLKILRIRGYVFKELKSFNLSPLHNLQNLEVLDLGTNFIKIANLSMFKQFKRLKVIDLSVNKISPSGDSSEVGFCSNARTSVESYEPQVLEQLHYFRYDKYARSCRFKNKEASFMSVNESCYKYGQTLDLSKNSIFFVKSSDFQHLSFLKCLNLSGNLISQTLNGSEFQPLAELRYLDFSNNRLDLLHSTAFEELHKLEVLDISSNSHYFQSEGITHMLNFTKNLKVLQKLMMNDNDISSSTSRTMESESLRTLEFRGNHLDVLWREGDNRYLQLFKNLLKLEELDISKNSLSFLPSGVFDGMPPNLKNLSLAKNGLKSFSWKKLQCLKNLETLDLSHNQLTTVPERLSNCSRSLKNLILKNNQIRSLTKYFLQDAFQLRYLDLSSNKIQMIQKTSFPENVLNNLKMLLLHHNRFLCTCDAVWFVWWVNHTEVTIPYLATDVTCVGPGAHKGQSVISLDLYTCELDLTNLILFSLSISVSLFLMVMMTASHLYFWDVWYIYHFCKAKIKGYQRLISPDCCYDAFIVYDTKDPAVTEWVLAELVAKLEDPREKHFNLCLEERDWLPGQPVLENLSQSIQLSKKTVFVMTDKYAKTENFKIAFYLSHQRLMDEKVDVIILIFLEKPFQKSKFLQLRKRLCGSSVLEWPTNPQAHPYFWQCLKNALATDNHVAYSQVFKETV
Nature of the series: HEK293-Blue-hTLR-7 cells assay. To be noted: HEK293-Blue-hTLR7 cells, R848 stimulation, 20 hrs, SEAP reporter; read-out: HEK/hTLR7 IC50. In kind it is cell-based. An excerpt: HEK293-Blue-hTLR-7 Cells Assay:
A stable HEK293-Blue-hTLR-7 cell line was purchased from InvivoGen (Cat. #: hkb-htlr7, San Diego, Calif., USA). These cells were originally designed for studying the stimulation of human TLR7 by monitoring the activation of NF-κB. A SEAP (secreted embryonic alkaline phosphatase) reporter gene was placed under the control of the IFN-β minimal promoter fused to five NF-κB and AP-1-binding sites. The SEAP was induced by activating NF-κB and AP-1 via stimulating HEK-Blue hTLR7 cells with TLR7 ligands. Therefore the reporter expression was declined by TLR7 antagonist under the stimulation of a ligand, such as R848 (Resiquimod), for incubation of 20 hrs. The cell culture supernatant SEAP reporter activity was determined using QUANTI-Blue™ kit (Cat. #: rep-qbl, Invivogen, San Diego, Ca, USA) at a wavelength of 640 nm, a detection medium that turns purple or blue in the presence of alkaline phosphatase.
HEK293-Blue-hTLR7 cells were incubated at a density of 250,000˜450,000 cells/mL in a volume of 170 μL in a 96-well plate in Dulbecco's Modified Eagle's medium (DMEM) containing 4.5 g/L glucose, 50 U/mL penicillin, […], […], 2 mM L-glutamine, 10% (v/v) heat-inactivated fetal bovine serum with addition of 20 μL test compound in a serial dilution in the presence of final DMSO at 1% and 10 μL of 20 uM R848 in above DMEM, perform incubation under 37° C. in a CO2 incubator for 20 hrs. Then 20 μL of the supernatant from each well was incubated with 180 μL Quanti-blue substrate solution at 37° C. for 2 hrs and the absorbance was read at 620-655 nm using a spectrophotometer. The signaling pathway that TLR7 activation leads to downstream NF-κB activation has been widely accepted, and therefore similar reporter assay was modified for evaluating TLR7 antagonist.

As for `[2H]c1ccc2c(N3C[C@@H](C)N4Cc5nc(N6CC[C@H](N)[C@H](OC)C6)ccc5[C@H]4C3)ccc(C#N)c2n1` [Example 13, 5-[(2S,6R)-11-[(3R,4S)-4-amino-3-methoxy-1-piperidyl]-6-methyl-4,7,10-triazatricyclo[7.4.0.02,7]trideca-1(9),10,12-trien-4-yl]-2-deuterio-quinoline-8-carbonitrile], the “CL (h)” value in series [1] was found to be 9.4 mL/min/kg. Moreover, the IC50 on human TLR7 was determined as 1.7 nM.
On the same counts, the results for `C[C@@H]1CN(c2ccc(C#N)c3ncccc23)C[C@@H]2c3ccc(N4CC5CNCC(C4)O5)nc3CN12` [Example 6, 5-[(2S,6R)-6-methyl-11-(9-oxa-3,7-diazabicyclo[3.3.1]nonan-3-yl)-4,7,10-triazatricyclo[7.4.0.02,7]trideca-1(9),10,12-trien-4-yl]quinoline-8-carbonitrile] are 6.2 mL/min/kg and 4.9 nM.
In the same order, the values of `[2H]c1ccc2c(N3C[C@@H](C)N4Cc5nc(N6CCC7(CNC7)C6)ccc5[C@H]4C3)ccc(C#N)c2n1` [Example 9, 2-Deuterio-5-[(2S,6R)-11-(2,6-diazaspiro[3.4]octan-6-yl)-6-methyl-4,7,10-triazatricyclo[7.4.0.02,7]trideca-1(9),10,12-trien-4-yl]quinoline-8-carbonitrile] are 6.2 mL/min/kg and 6.5 nM.
Take `[2H]c1ccc2c(N3C[C@@H](C)N4Cc5nc(OC6CCNCC6)ccc5[C@H]4C3)ccc(C#N)c2n1` [Example 24, 2-Deuterio-5-[(2S,6R)-6-methyl-11-(4-piperidyloxy)-4,7,10-triazatricyclo[7.4.0.02,7]trideca-1(9),10,12-trien-4-yl]quinoline-8-carbonitrile]: the “CL (h)” value in series [1] is given as 6.2 mL/min/kg. For the same compound, at human TLR7, the IC50 stood at 1 nM.
On the same counts, the results for `N#Cc1ccc(N2CCN3Cc4nc(N5CCNCC5)ccc4[C@@H]3C2)c2cccnc12` [Example 3A, 5-[(2R)-11-piperazin-1-yl-4,7,10-triazatricyclo[7.4.0.02,7]trideca-1(9),10,12-trien-4-yl]quinoline-8-carbonitrile] are 8.4 mL/min/kg and 14.8 nM.
`C[C@@H]1CN(c2ccc(C#N)n3nccc23)C[C@@H]2c3ccc(N4C[C@@H]5C[C@H]4CN5)nc3CN12` [Example 21, 4-[(2S,6R)-11-[(1S,4S)-2,5-diazabicyclo[2.2.1]heptan-2-yl]-6-methyl-4,7,10-triazatricyclo[7.4.0.02,7]trideca-1(9),10,12-trien-4-yl]pyrazolo[1,5-a]pyridine-7-carbonitrile]: the “CL (h)” value in series [1] was 6.6 mL/min/kg. Besides, the IC50 at human TLR7 was found to be 7 nM.
On to `C[C@@H]1CN(c2ccc(C#N)c3ncccc23)C[C@@H]2c3ccc(N4CCNCC4)nc3CN12` [Example 5, 5-[(2S,6R)-6-methyl-11-piperazin-1-yl-4,7,10-triazatricyclo[7.4.0.02,7]trideca-1(9),10,12-trien-4-yl]quinoline-8-carbonitrile], for which the “CL (h)” value in series [1] worked out at 8.1 mL/min/kg. In addition, the IC50 on human TLR7 came out at 0.9 nM.
As for `[2H]c1ccc2c(N3C[C@@H](C)N4Cc5nc(N6CC[C@@H](N)[C@H](OC)C6)ccc5[C@H]4C3)ccc(C#N)c2n1` [Example 11, 5-[(2S,6R)-11-[(3R,4R)-4-amino-3-methoxy-1-piperidyl]-6-methyl-4,7,10-triazatricyclo[7.4.0.02,7]trideca-1(9),10,12-trien-4-yl]-2-deuterio-quinoline-8-carbonitrile], the “CL (h)” value in series [1] is recorded as 7.1 mL/min/kg. The IC50 at human TLR7 was 3.7 nM.

Values taken from US12503471B2, “Triazatricycle compounds for the treatment of autoimmune disease” (Hoffmann-La Roche Inc., priority 2019, dated 2025).
